Measured values as given in patent publication US6541506B1, “Antifungal enediynes” (Phytera Incorporated, priority 1999, dated 2003).
≈ marks a conversion by molar mass, not a printed value. Where “and” joins values, the source holds several entries; their conditions need not be identical. Identical values can stand only once.

How the values were obtained:
C. albicans DSY1024 = assay: Candida growth inhibition (XTT), C. albicans DSY1024; format: cell-based
Description: (§1) There are numerous assays that can be used to measure the inhibition of growth of a fungus such as Candida. In one example, cultures of Candida, e.g., C. albicans strains DSY1024 and SC5314, C. krusei ATCC 6258, and C. glabrata ATCC 90030, are subcultured from cryopreserved stocks onto Sabouraud's dextrose agar plates. Blastoconidia are suspended into RPMI-MOPS medium and inoculated (500 cfu/well) into 96-well plates containing test compounds in a final volume of 100 μL/well. After 22 hours at 35° C., 25 μL of XTT (2,3-bis(2-methoxy-4-nitro-5-sulfophenyl)-5-(phenylamino)carbonyl]-2H-tetrazolium hydroxide), (100 μg/mL) with PMS (phenazine methyl sulfate, 5 μM) are added to each well, followed by 2 hours of shaking. Growth is assessed spectrophotometrically by measuring the appearance of soluble formazan stain at 450 nm using an Emax microplate reader. Validity of the assay is confirmed by determination of the C. albicans minimum inhibitory concentration (MIC) for known antifungal agents such as amphotericin B, 5-flucytosine, fluconazole, nikkomycin Z, and polyoxin D.
LP416E8 (AC-05081-T4-3) was an organic extract of a manipulated plant cell culture from A. corsicum.

C. albicans SC5314 = assay: Candida growth inhibition (XTT), C. albicans SC5314; format: cell-based
Description: as §1

C. albicans 90028 = assay: Candida growth inhibition, C. albicans 90028; format: cell-based
Description: as §1

C. albicans A26 = assay: Candida growth inhibition, C. albicans A26; format: cell-based
Description: as §1

C. albicans #64 = assay: Candida growth inhibition, C. albicans #64; format: cell-based
Description: as §1
(§2) Using the cell growth assay described herein, Compound 1 was tested for its ability to inhibit growth of C. albicans, C. kefyr, C. tropicalis, C. krusei, and C. glabrata.

C. albicans UTR-14 = assay: Candida growth inhibition, C. albicans UTR-14; format: cell-based; conditions: C. albicans UTR-14, fluconazole-resistant strain
Description: as §1, §2

C. albicans 93-1226 = assay: Candida growth inhibition, C. albicans 93-1226; format: cell-based; conditions: C. albicans 93-1226, fluconazole-resistant strain
Description: as §1, §2

C. keyfer 46764 = assay: Candida growth inhibition, C. keyfer 46764; format: cell-based, C. kefyr
Description: as §1, §2

C. tropicalis 623-20 = assay: Candida growth inhibition, C. tropicalis 623-20; format: cell-based
Description: as §1, §2

C. tropicalis 750 = assay: Candida growth inhibition, C. tropicalis 750; format: cell-based
Description: as §1, §2

C. tropicalis 97-1037 = assay: Candida growth inhibition, C. tropicalis 97-1037; format: cell-based
Description: as §1, §2

C. krusei 6258 = assay: Candida growth inhibition, C. krusei 6258; format: cell-based
Description: as §1, §2

C. krusei 97-1037 = assay: Candida growth inhibition, C. krusei 97-1037; format: cell-based
Description: as §1, §2

C. glabrata 90030 = assay: Candida growth inhibition, C. glabrata 90030; format: cell-based
Description: as §1, §2

C. glabrata 95-2421 = assay: Candida growth inhibition, C. glabrata 95-2421; format: cell-based
Description: as §1, §2

C. glabrata 95-2425 = assay: Candida growth inhibition, C. glabrata 95-2425; format: cell-based
Description: as §1, §2

S. cerevisiae AD1-9 = assay: Anti-cell growth activity, S. cerevisiae AD1-9; format: cell-based
Description: (§3) The anti-cell growth activity of Compound 1 on other fungal strains, as well as bacterial strains and cultured mammalian cells, was also tested (Table 3). […] Bacterial cell growth and mammalian cell growth was inhibited at substantially higher concentrations of Compound 1.

S. cerevisiae 2229-5C = assay: Anti-cell growth activity, S. cerevisiae 2229-5C; format: cell-based
Description: as §3

A. fumigatus 8001 = assay: Anti-cell growth activity, A. fumigatus 8001; format: cell-based, Aspergillus fumigatus
Description: as §3

S. aureus 29213 = assay: Anti-cell growth activity, S. aureus 29213; format: cell-based
Description: as §3

E. faecalis 29212 = assay: Anti-cell growth activity, E. faecalis 29212; format: cell-based
Description: as §3

E. coli 700 = assay: Anti-cell growth activity, E. coli 700; format: cell-based
Description: as §3

HFF cells = assay: Anti-cell growth activity, cultured mammalian HFF cells; format: cell-based
Description: as §3

T. rubrum = assay: Dermatophyte growth inhibition (microdilution, NCCLS M27A), T. rubrum; format: cell-based, Trichophyton rubrum
Description: (§4) The compounds of the invention are also effective against dermatophytes. Testing was performed using a microdilution method based on the NCCLS M27A antifungal protocol. Compounds to be tested were prepared in DMSO and diluted to the appropriate concentration in RPMI 1640 medium (the dermatophyte growth medium). An inoculum of each test organism was prepared from oatmeal agar plates to contain 0.5-2.5×10^3 conidia/mL. One hundred microliters of the inoculum was added to each well of a 96-well microtiter plate containing 4 μL of a test compound and 96 μL of RPMI 1640. Terbinafine (sold under the brand name Lamisil®) was used as a positive control.

T. mentagrophytes = assay: Dermatophyte growth inhibition (microdilution, NCCLS M27A), T. mentagrophytes; format: cell-based
Description: as §4

T. tonsurans = assay: Dermatophyte growth inhibition (microdilution, NCCLS M27A), T. tonsurans; format: cell-based
Description: as §4

M. canis = assay: Dermatophyte growth inhibition (microdilution, NCCLS M27A), M. canis; format: cell-based, Microsporum canis
Description: as §4

[1] = system: C. albicans, C. kefyr, C. tropicalis, C. krusei, and C. glabrata; assay: Candida growth inhibition, all tested strains (summary); format: cell-based, Candida spp.; conditions: range over all tested strains incl. fluconazole-resistant 93-1226 and UTR-14
Description: as §1, §2

other fungal strains = assay: Anti-cell growth activity on other fungal strains (summary); format: cell-based; conditions: range over other fungal strains of Table 3
Description: as §3

Candida = assay: Anti-Candida activity by backbone length; format: cell-based; conditions: X=7
Description: The variable X denotes the length of a saturated carbon backbone. The antifungal activity of the claimed compounds changes in part based on the length of this backbone. […] Preferably, X is an integer between 5 and 7, inclusive, although longer carbon chains (X=8-10) may preserve or increase antifungal activity.

[2] = T. rubrum, four days at 35° C., visual inspection
[3] = T. mentagrophytes, four days at 35° C., visual inspection
[4] = T. tonsurans, four days at 35° C., visual inspection
[5] = M. canis, four days at 35° C., visual inspection

O=C(O)CCCCCC=CC#CC#Cc1ccco1 [Compound 2]
IC50 (C. albicans DSY1024; C. albicans DSY1024 (Table 4)): 1.817 µg/mL (≈ 7.09 µM) | MIC (C. albicans DSY1024; C. albicans DSY1024 (Table 4)): 3.125 µg/mL (≈ 12.2 µM) | inhibition of growth of strain SC5314 (C. albicans SC5314): able to inhibit growth | IC50 (C. albicans SC5314; C. albicans SC5314 (Table 4)): 2.592 µg/mL (≈ 10.1 µM) | MIC (C. albicans SC5314; C. albicans SC5314 (Table 4)): 3.125 µg/mL (≈ 12.2 µM)

O=C(O)CCCCCCC/C=C/C#CC#Cc1ccco1 [Compound 1]
MIC (C. albicans DSY1024; C. albicans DSY1024): 0.0025 µg/mL (≈ 0.00879 µM) | MIC (C. albicans SC5314; C. albicans SC5314): 0.000625 µg/mL and 0.00125 µg/mL | IC50 (C. albicans 90028): 0.00122 µg/mL (≈ 0.00429 µM) | IC50 (C. albicans A26): 0.0011 µg/mL (≈ 0.00387 µM) | IC50 (C. albicans #64): 0.00145 µg/mL (≈ 0.0051 µM) | MIC (C. albicans #64): 0.005 µg/mL (≈ 0.0176 µM) | IC50 (C. albicans UTR-14): 0.00364 µg/mL (≈ 0.0128 µM) | MIC (C. albicans UTR-14): 0.0025 µg/mL (≈ 0.00879 µM) | IC50 (C. albicans 93-1226): 0.0021 µg/mL (≈ 0.00739 µM) | MIC (C. albicans 93-1226): 0.0025 µg/mL (≈ 0.00879 µM) | MIC (C. keyfer 46764): 0.01 µg/mL (≈ 0.0352 µM) | IC50 (C. tropicalis 623-20): 0.00296 µg/mL (≈ 0.0104 µM) | MIC (C. tropicalis 623-20): 0.005 µg/mL (≈ 0.0176 µM) | IC50 (C. tropicalis 750): 0.00467 µg/mL (≈ 0.0164 µM) | MIC (C. tropicalis 750): 0.005 µg/mL (≈ 0.0176 µM) | IC50 (C. tropicalis 97-1037): 0.00368 µg/mL (≈ 0.0129 µM) | MIC (C. tropicalis 97-1037): 0.005 µg/mL (≈ 0.0176 µM) | IC50 (C. krusei 6258): 0.0419 µg/mL (≈ 0.147 µM) | MIC (C. krusei 6258): 0.05 µg/mL (≈ 0.176 µM) | IC50 (C. krusei 97-1037): 0.0261 µg/mL (≈ 0.0918 µM) | MIC (C. krusei 97-1037): 0.05 µg/mL (≈ 0.176 µM) | IC50 (C. glabrata 90030): 0.0125 to 0.025 µg/mL | MIC (C. glabrata 90030): 0.005 µg/mL (≈ 0.0176 µM) | IC50 (C. glabrata 95-2421): 0.00825 µg/mL (≈ 0.029 µM) | MIC (C. glabrata 95-2421): 0.0125 µg/mL (≈ 0.044 µM) | IC50 (C. glabrata 95-2425): 0.00313 to 0.00625 µg/mL | MIC (C. glabrata 95-2425): 0.0125 µg/mL (≈ 0.044 µM) | IC50 (S. cerevisiae AD1-9): 0.18 µg/mL (≈ 0.633 µM) | MIC (S. cerevisiae AD1-9): 0.25 µg/mL (≈ 0.879 µM) | IC50 (S. cerevisiae 2229-5C): 0.5 to 1.0 µg/mL | MIC (S. cerevisiae 2229-5C): 1 µg/mL (≈ 3.52 µM) | IC50 (A. fumigatus 8001): 50 to 100 µg/mL | MIC (A. fumigatus 8001): 200 µg/mL (≈ 703 µM) | IC50 (S. aureus 29213): 31.6 µg/mL (≈ 111 µM) | MIC (S. aureus 29213): 50 µg/mL (≈ 176 µM) | IC50 (E. faecalis 29212): 7.5 µg/mL (≈ 26.4 µM) | MIC (E. faecalis 29212): 12.5 µg/mL (≈ 44 µM) | MIC (E. coli 700): >200 µg/mL | IC50 (HFF cells): 12 µg/mL (≈ 42.2 µM) | MIC (T. rubrum; [2]): 0.001 µg/mL (≈ 0.00352 µM) | MIC (T. mentagrophytes; [3]): 0.001 µg/mL (≈ 0.00352 µM) | MIC (T. tonsurans; [4]): 0.001 µg/mL (≈ 0.00352 µM) | MIC (M. canis; [5]): 0.001 µg/mL (≈ 0.00352 µM) | IC50 values, all tested Candida strains [1]: 0.00035 to 0.042 µg/mL | IC50 values, fungal growth, lower end of range (other fungal strains): ≥ 0.18 µg/mL | anti-Candida activity (ranking by backbone length X) (Candida): greatest anti-Candida activity

CN(C/C=C/C#CC(C)(C)C)Cc1cccc2ccccc12 [Terbinafine, reference compound]
MIC (T. rubrum; Trichophyton rubrum, 96 h): 0.002 µg/mL (≈ 0.00686 µM) | MIC (T. mentagrophytes; Trichophyton mentagrophytes, 96 h): 0.004 µg/mL (≈ 0.0137 µM) | MIC (T. tonsurans; Trichophyton tonsurans, 96 h): 0.015 µg/mL (≈ 0.0515 µM) | MIC (M. canis; Microsporum canis, 96 h): 0.015 µg/mL (≈ 0.0515 µM)

COC(=O)CCCCCCC/C=C\C#CC#Cc1ccco1 [Compound 7]
IC50 (C. albicans DSY1024; C. albicans DSY1024 (Table 4)): 0.19 µg/mL (≈ 0.637 µM) | MIC (C. albicans DSY1024; C. albicans DSY1024 (Table 4)): 0.25 µg/mL (≈ 0.838 µM) | inhibition of growth of strain SC5314 (C. albicans SC5314): able to inhibit growth | IC50 (C. albicans SC5314; C. albicans SC5314 (Table 4)): 0.221 µg/mL (≈ 0.741 µM) | MIC (C. albicans SC5314; C. albicans SC5314 (Table 4)): 0.25 µg/mL (≈ 0.838 µM) | MIC (T. rubrum; [2]): 0.125 µg/mL (≈ 0.419 µM) | MIC (T. mentagrophytes; [3]): 0.125 µg/mL (≈ 0.419 µM) | MIC (T. tonsurans; [4]): 0.125 µg/mL (≈ 0.419 µM) | MIC (M. canis; [5]): 0.125 µg/mL (≈ 0.419 µM) | anti-Candida activity (ranking by backbone length X) (Candida): greatest anti-Candida activity
